{
  "source": "patent EP2096113A1",
  "about": "“9-substituted camptothecin derivatives as antitumor compounds” (SIGMA-TAU Industrie Farmaceutiche Riunite S.p.A., priority 2008, dated 2009)",
  "key": {"[1]": {"tested_on": "NCI-H460 non-microcytoma lung cancer cells", "experiment": "Cytotoxic activity on NCI-H460 cells (sulforodamine B test)", "type": "cell-based", "conditions": "product concentration that inhibits cell survival by 50%; 2 hours incubation with products, then another 72 hours in drug-free medium; optical density at 540 nm; read-out: IC50 (µM) H-460", "procedure": "NCI-H460 non-microcytoma lung cancer cells were kept in RPMI 1640 culture medium containing 10% FCS and 1% glutamine. The cytotoxicity test to analyse the activity of the molecules was performed as follows. The cells were seeded in a volume of 250 µl in 96-well plates and incubated for 2 hours at 37°C with scalar concentrations of the products in a humidified atmosphere containing 5% CO2. At the end of the incubation, the molecules were removed by overturning the plates and adding sterile buffered saline solution (PBS) three times. The RPMI 1640 culture medium containing 10% FCS (200 µl) was added to the wells and the plates were incubated for another 72 hours. At the end of the incubation, the plates were overturned again and dried on paper, before adding 200 µl of PBS and 50 µl of 80% TCA. The plates were incubated again in ice for at least 1 hour. The TCA was removed by overturning the plates and the plates were first dried on paper and then washed three times by immersion in distilled water and overturning. The plates were dried first on paper and then in a thermostatically regulated incubator at 60°C for 10 min. 200 µl of 0.4% sulforodamine B in 1% acetic acid were added to all wells. The plates were incubated at room temperature for another 30 min. The sulforodamine B was removed by overturning, the plates were washed by immersion in 1% acetic acid three times and then dried first on blotting paper and then in the thermostat at 60°C for 10 min. Lastly, 200 µl of Tris base 10 mM were added to all wells and the plates were subjected to stirring for at least 20 min. The optical density was measured with a Multiskan spectrophotometer at 540 nm. Incubation with the products was capable of inhibiting proliferation in a concentration-dependent manner. Table 1 presents the IC50 values (product concentration that inhibits cell survival by 50%]. IC50 values for topotecan have also been reported for comparison purposes (Dallavalle S. et al., J. Med. Chem., 44, 3264-74, 2001). Table 1."}, "[2]": {"tested_on": "NCI-H460 non-microcytoma lung cancer cells", "conditions": "topotecan value reported for comparison, from Dallavalle S. et al., J. Med. Chem., 44, 3264-74, 2001; read-out: IC50 (µM) H-460; cited from earlier work"}},
  "note": "Like-named read-outs stand apart in the source and are kept apart here.",
  "data": [
    {"smiles": "CC[C@@]1(O)C(=O)OCc2c1cc1n(c2=O)Cc2cc3c(C=NOC(C)(C)C)c(OC)ccc3nc2-1", "note": "[10-OCH3-CPT-9-CH=NOC(CH3)3, 10-methoxy-9-tert-butoxyiminomethylcamptothecin]", "values": [
      {"measurement": "IC50", "setting": "[1]", "value": 0.31, "unit": "µM"}
    ]},
    {"smiles": "CC[C@@]1(O)C(=O)OCc2c1cc1n(c2=O)Cc2cc3c(C#N)c(OC)ccc3nc2-1", "note": "[10-OCH3-CPT-9-CN, 10-Methoxy-9-cyanocamptothecin]", "values": [
      {"measurement": "IC50", "setting": "[1]", "value": 0.27, "unit": "µM"}
    ]},
    {"smiles": "CC[C@@]1(O)C(=O)OCc2c1cc1n(c2=O)Cc2cc3c(C=NOC(C)(C)C)c(O)ccc3nc2-1", "note": "[10-OH-CPT-9-CH=NOC(CH3)3, 10-hydroxy-9-tert-butoxyiminomethylcamptothecin]", "values": [
      {"measurement": "IC50", "setting": "[1]", "value": 0.35, "unit": "µM"}
    ]},
    {"smiles": "CC[C@@]1(O)C(=O)OCc2c1cc1n(c2=O)Cc2cc3c(C=NOC(C)(C)C)cccc3nc2-1", "note": "[CPT-9-CH=NOC(CH3)3, 9-tert-Butoxyiminomethylcamptothecin]", "values": [
      {"measurement": "IC50", "setting": "[1]", "value": 0.067, "unit": "µM"}
    ]},
    {"smiles": "CC[C@@]1(O)C(=O)OCc2c1cc1n(c2=O)Cc2cc3c(C=NOCCN)cccc3nc2-1", "note": "[CPT-9-CH=NOCH2CH2NH2, 9-(2-Aminoethoxy)iminomethylcamptothecin]", "values": [
      {"measurement": "IC50", "setting": "[1]", "value": 2.53, "unit": "µM"}
    ]},
    {"smiles": "CC[C@@]1(O)C(=O)OCc2c1cc1n(c2=O)Cc2cc3c(CN(C)C)c(O)ccc3nc2-1", "note": "[topotecan, 10-hydroxy-9-dimethylaminomethylcamptothecin]", "values": [
      {"measurement": "IC50", "setting": "[2]", "value": 1.38, "unit": "µM"}
    ]}
  ]
}
